The text below walks through data of a melting point compilation (Tetko et al.; mined from patent text by program, amines drawn as free bases though some values may be those of a salt).

What is called melting point is the temperature, or range, at which the solid turns liquid. `O=C(CBr)c1cc(OCc2ccccc2)c(OCc2ccccc2)c(OCc2ccccc2)c1` yielded a melting point of 112 to 113 °C. The result for `Cc1cc(N2CCCC2)c([N+](=O)[O-])c(Cl)n1` reads 151 to 156 °C; that for `CCOC(=O)C1=C(CCl)NC(C)=C(C(=O)OC)C1c1cccc([N+](=O)[O-])c1` (configuration not stated), 119 to 120 °C.

With `COc1ccc(C)c(Nc2c(C#N)cnc3c2C=C2N=C(NCCN4CCOCC4)N=C2C3)c1`, the melting point fell in the range of 148 to 150 °C.

Consider `CCCCc1cnc(NCCCOc2cccc(CN3CCCCC3)c2)[nH]c1=O`, for which the melting point fell in the range of 105 to 106 °C.

As to `C=C[C@H](O)[C@H](Cc1ccccc1)NC(=O)OC(C)(C)C`, the melting point was in the range of 98 to 100 °C. Molecule `O=C1c2ccccc2C(=O)N1Cc1noc(-c2ncn3c2[C@@H]2CCCN2C(=O)c2sccc2-3)n1` displayed a melting point of 248 to 250 °C. `CC(C)c1ccc(C(=O)[C@@H]2C[C@H]2c2ccccc2)c(C(C)C)c1OS(N)(=O)=O` (relative stereo) registered a melting point of 166 to 168 °C. The result for `CN1CCN(C2=Nc3cc(Br)ccc3-n3ccc4cccc2c43)CC1` reads 164 to 166 °C. The result for `CC#CCOc1ccc(S(=O)(=O)N(C)C(C(=O)NO)C(C)(C)SCC(C)N(CC)CC)cc1` (configuration not stated) reads 65 to 68 °C. Turning to `Cc1cc2c(c(C)c1S(=O)(=O)C[N+](=O)[O-])CCCC(C)(C)O2`, the melting point was 100 to 101 °C. The result for `O=C(NC1N=C(c2ccccc2)c2ccccc2NC1=O)c1cccc2ccccc12` (racemic) reads 162 to 167 °C; that for `CC(C)=CCc1c(C)cc(O)cc1C`, 64 to 65 °C.

`C=C(Cc1ccccc1)C(=O)NN1CCNCC1`: the melting point came out at 78 °C. The result for `CCCCNC(=O)NCCCn1c(CCCC)nc2c(N)nc3ccccc3c21` reads 186 °C; that for `N#CC1(SCc2ccccc2)C2CC3CC(C2)CC1C3` (configuration not stated), 73 to 75 °C. The result for `CC(=O)NC[C@H]1CN(c2ccc3c(c2)CCC(C)N3C(=O)OCc2ccccc2)C(=O)O1` (some centres not stated) reads 126 to 129 °C; that for `Clc1ccc(-c2ccccc2Cl)nn1`, 145 to 147 °C; that for `CC(C)CNc1cccnc1N1CCN(C(=O)c2ccc(C(=O)NC(C)C)cn2)CC1`, 132 to 134 °C. The result for `N#Cc1cccc(Oc2ccccc2)c1C#N` reads 110 to 112 °C.

Molecule `COc1ccc(-c2ccc(C(=O)O)cc2)c2c1OCCO2` yielded a melting point of 281 to 284 °C.

`COc1ccc(C=CC(=O)c2c(OC)cc(OC)cc2OC(=O)OCc2ccccc2)cc1` returned a melting point of 127 °C.

`Cc1ccc(S(=O)(=O)OCCc2ccc3[nH]cc(S(=O)(=O)c4ccccc4)c3c2)cc1` yielded a melting point of 60 to 63 °C. The molecule `Fc1cc(-c2cc(C(F)(F)F)n3ncc(-c4ccncc4)c3n2)ccc1C(F)(F)F` gave a melting point of 262 °C. The result for `CCn1nc(OCC(=O)C(C)(C)C)c(-c2ccc(F)cc2)c1-c1ccc(S(C)(=O)=O)cc1` reads 144 to 146 °C; that for `Cc1ccc(-n2nc(C(N)=O)nc2-c2ccccc2)cc1COCCC(C)C`, 83 to 85 °C. On to `N#Cc1ccccc1OCCc1c[nH]cn1`, for which the melting point lay in the range of 170 to 171 °C. In turn, `O=C1c2cccc3c2N(C(=O)C2CCCN12)C(c1ccccc1)O3` (configuration not stated) had a melting point of 160 to 163 °C. The result for `Cc1ccc(Nc2c(C)cc(Cl)cc2Cl)c(CC(=O)N(C)C)c1` reads 119 to 124 °C. The result for `COc1cc(Nc2c(C#N)cnc3ccsc23)c(Cl)cc1Cl` reads 208 to 210 °C; that for `O=C(O)c1ccc2cc(O)c(O)cc2c1`, 241 to 250 °C. The result for `O=c1[nH]ncc(Cl)c1NCCN1CCN(c2cccc(C(F)(F)F)c2)CC1` reads 220 to 223 °C; that for `Nc1cccc(C2=NNC(=O)Cc3cc4c(cc32)OCO4)c1`, 118 to 122 °C. Regarding `CCOC(=O)C(C(=O)OCC)C(=O)c1cc(OC)c(OC)c([N+](=O)[O-])c1`, the melting point came to 70 °C. The result for `O=Cc1ccccc1Oc1ccc(F)cc1[N+](=O)[O-]` reads 94 to 95 °C; that for `Ic1ccc2c3c(cccc13)C(=NCc1ccccc1)N2`, 160 to 163 °C.

`CS(=O)(=O)c1c[nH]nc1C(CCCC(=O)C1CCCCC1)CO[N+](=O)[O-]` (configuration not stated): the melting point is 111 to 113 °C.

`CN(Cc1ccccc1)C1(CNC(=O)c2ccc(Cl)c(Cl)c2)CCCCC1` displayed a melting point of 139 to 145 °C. The result for `O=C(Nc1ccccc1C(=O)O)OCc1ccccn1` reads 172 to 175 °C; that for `CC(C)c1ccc(N2COCN(C)C2=O)cc1F`, 45 °C; that for `O=C1OC(=O)C2CC(=C(F)F)CC12` (configuration not stated), 140 to 145 °C. `CC(N)c1ccc(C(=O)O)cc1` (configuration not stated) had a melting point of over 300 °C. The result for `COc1ccc(F)c2c1CCC(C=O)C2=O` (configuration not stated) reads 66 to 68 °C; that for `CCCC1=C(Cl)C(=O)c2oc(Cc3ccc(OC)c(Cl)c3)c(C)c2C1=O`, 134 to 136 °C; that for `O=C1C(=Cc2ccccc2)CS(=O)(=O)CC1=Cc1ccccc1`, 201 to 203 °C.

`CCN1CCc2ccc(Nc3ncc([N+](=O)[O-])c(Nc4ccccc4C(=O)NC)n3)cc2CC1`: the melting point fell in the range of 222 to 225 °C. In turn, `Cc1ccc(-c2nc(COc3ccc(CCCn4ccnc4)cc3Cl)co2)s1` yielded a melting point of 95 to 96 °C.

`NNC(=O)c1cc2c(s1)-c1ccccc1OC2c1ccccc1` (configuration not stated) yielded a melting point of 238 to 239 °C.

As for `Cc1c[nH]c(C)c1C(C)(C)C`, the melting point was 70 to 71 °C. The result for `COc1ccc(CN2c3ccc(Cl)cc3C=C(C(=O)O)C2C(F)(F)F)cc1` (configuration not stated) reads 196 to 197 °C; that for `CCOC(=O)c1nn(-c2ccc(NC)cc2)c(=O)c2c(N)scc12`, 211 to 213 °C; that for `CSc1cc2n(c(=O)n1)C(c1ccccc1)N=C2` (configuration not stated), 198 to 199 °C. The result for `CCOCc1nc2c(N)nc3ccc(OCc4ccccc4)cc3c2n1CC(C)(C)NS(C)(=O)=O` reads 90 °C. The result for `COc1ccc(SC2CC(=O)N2)cc1OC` (configuration not stated) reads 145 to 146 °C; that for `CCOC(=O)c1sc(-c2ccc3c(=O)n(CC(C)C)c(CNC(=O)OC(C)(C)C)c(-c4ccccc4)c3c2)nc1C`, 201 to 202 °C. `COc1cccc2c1CN(Nc1ccncc1)C2` displayed a melting point of 144 to 146 °C. The result for `CC(=O)OC1CSC(Oc2cccnc2C(C)=O)C(OC(C)=O)C1OC(C)=O` (configuration not stated) reads 168 °C. Regarding `COc1cc(Oc2c(Cl)cccc2C(F)(F)F)nc(C(=O)O)c1`, the melting point is 110 to 112 °C. The result for `COc1ccc(-c2cc3nccnc3[nH]2)cc1OCCO` reads 203 to 205 °C; that for `Cn1ccc2ccccc2c(=NO)c1=O`, 225 to 226 °C.

In turn, `Cc1ccc(C(=O)Nc2cc(-n3ccnc3C)cc(C(F)(F)F)c2)cc1Nc1nccc(-c2cccnc2)n1` registered a melting point of 242 to 247 °C.

`CC(=O)Nc1nc2c(s1)-c1nc(-c3ccccc3Cl)ncc1C2` displayed a melting point of 257 °C.
